# In article PMC9238401, “Peptide Conjugates Derived from flg15, Pep13, and PIP1 That Are Active against Plant-Pathogenic Bacteria and Trigger Plant Defense Responses” (Applied and Environmental Microbiology, 2022):
# Non-standard residues stand in square brackets, D forms with d. Residues, ends and D or L forms follow the SMILES beside them. *: point of attachment. Butyryl = CCCC(=O)*
# What was measured:
# tobacco leaves = assay: Effect of peptide infiltration on tobacco leaves (phytotoxicity); assay type: in vivo; details: 100 μL infiltrated into mesophyll, lesion diameter 48 h after infiltration, at least three leaves; ± confidence interval (α = 0.05)
# Procedure: Peptide conjugates were also assayed for their toxicity in tobacco leaves (Fig. 3, Table SC). After 48 h of infiltration, melittin caused a necrotic area of 0.70 and 2.17 cm in diameter at 50 and 250 μM, respectively. The monomers were not phytotoxic at those concentrations; all of them led to lesions of ≤1.2 cm at 250 μM. All peptide conjugates were also less phytotoxic than melittin, causing necrotic lesions between 0.26 and 1.67 cm in diameter at 250 μM. In particular, 15 of the 30 conjugates led to a necrotic area of <1 cm at this concentration. In general, sequences incorporating BP13 were among the most phytotoxic.
# Peptide conjugates were evaluated for their effect on infiltration on tobacco leaves as described previously ([41]). Peptide solutions of 50, 150, and 250 μM were infiltrated (100 μL) into the mesophylls of fully expanded tobacco leaves. Infiltrations were carried out in a single leaf, and for each peptide and dose, at least three leaves randomly distributed in different plants were inoculated. Control infiltrations with water (negative control) or melittin (positive control) at the same molar concentration were performed. The appearance of symptoms on the leaves was followed for 48 h after infiltration and measured as lesion diameter.
# [1] = test system: Xanthomonas fragariae Xf349-9A; assay: In vitro growth inhibition (MIC); assay type: cell-based; details: TSB, 25°C, 48 h, OD 600 nm (Bioscreen C), three replicates, experiment repeated twice; MIC given as range
# Procedure: (§1) Peptide conjugates were tested for in vitro growth inhibition of the plant-pathogenic bacteria E. amylovora PMV6076, Xanthomonas arboricola pv. pruni CFBP5563, X. fragariae Xf349-9A, X. axonopodis pv. vesicatoria 2133-2, P. syringae pv. actinidiae Psa3700.1.1, and P. syringae pv. syringae EPS94 (Fig. 1, Table SA). The corresponding monomers (flg15, BP13, Pep13, PIP1, BP16, BP100, BP143, BP387, BP475, and KSL-W) were included for comparison.
# (§2) The following plant-pathogenic bacterial strains were used: Erwinia amylovora PMV6076 (Institut National de la Recherche Agronomique, Angers, France), Pseudomonas syringae pv. syringae EPS94 (Institut de Tecnologia Agroalimentària, University of Girona, Spain), Xanthomonas axonopodis pv. vesicatoria 2133-2, X. axonopodis pv. vesicatoria Xav206 (Xav) (D. F. Ritchie, Department of Plant Pathology, North Carolina State University), Pseudomonas syringae pv. actinidiae Psa3700.1.1, Xanthomonas fragariae Xf349-9A (Instituto Valenciano de Investigaciones Agrarias, Valencia, Spain), and Xanthomonas arboricola pv. pruni CFBP5563 (Collection Française de Bactéries Associées aux Plantes, Angers, France). All bacteria except for X. fragariae were stored in Luria Bertani (LB) broth supplemented with glycerol (20%) and maintained at −80°C. For X. fragariae, medium B ([80]) was used instead of LB. E. amylovora, X. arboricola pv. pruni, P. syringae pv. syringae, and P. syringae pv. actinidiae were scraped from the agar medium after growing for 24 h at 25°C, and X. axonopodis pv. vesicatoria and X. fragariae, after growing for 48 h at 25°C. The cell material was suspended in sterile water to obtain a suspension of 10^8 CFU mL^−1.
# (§3) Lyophilized peptides were solubilized in sterile Milli-Q water to a final concentration of 1 mM and filter-sterilized through a 0.22-μm pore filter. […] Then, 20 μL of each dilution were mixed in a microtiter plate well with 20 μL of the corresponding suspension of the bacterial indicator, 160 μL of Trypticase soy broth (TSB) (bioMérieux, France) to a total volume of 200 μL. Three replicates for each combination of strain, compound, and concentration were used. Microbial growth was determined by optical density measurement at 600 nm (Bioscreen C; Labsystem, Helsinki, Finland). Microplates were incubated at 25°C with 20 s of shaking before hourly absorbance measurement for 48 h. The experiment was repeated twice. The MIC was taken as the lowest compound concentration with no growth at the end of the experiment.
# [2] = test system: Xanthomonas arboricola pv. pruni CFBP5563; assay: In vitro growth inhibition (MIC); assay type: cell-based; details: TSB, 25°C, 48 h, OD 600 nm (Bioscreen C), three replicates, experiment repeated twice; MIC given as range
# Procedure: as §1, §2, §3
# [3] = test system: Erwinia amylovora PMV6076; assay: In vitro growth inhibition (MIC); assay type: cell-based; details: TSB, 25°C, 48 h, OD 600 nm (Bioscreen C), three replicates, experiment repeated twice; MIC = lowest concentration with no growth, given as range
# Procedure: as §1, §2, §3
# [4] = test system: Pseudomonas syringae pv. syringae EPS94; assay: In vitro growth inhibition (MIC); assay type: cell-based; details: TSB, 25°C, 48 h, OD 600 nm (Bioscreen C), three replicates, experiment repeated twice; MIC given as range
# Procedure: as §1, §2, §3
# [5] = test system: Pseudomonas syringae pv. actinidiae Psa3700.1.1; assay: In vitro growth inhibition (MIC); assay type: cell-based; details: TSB, 25°C, 48 h, OD 600 nm (Bioscreen C), three replicates, experiment repeated twice; MIC given as range
# Procedure: as §1, §2, §3
# horse erythrocytes = details: TRIS buffer pH 7.2, 1 h, 37°C, absorbance 540 nm, relative to melittin 100 μM, ± confidence interval (α = 0.05)
# Procedure: The toxicity of peptide conjugates to eukaryotic cells was determined as the ability to lyse erythrocytes (Table SB).
# The hemolytic activity of the compounds was evaluated by determining hemoglobin release from erythrocyte suspensions of horse blood (5% vol/vol) (Oxoid) as previously described ([45]). Blood was centrifuged at 6000g for 5 min, washed three times with TRIS buffer (10 mM TRIS, 150 mM NaCl, pH 7.2) and diluted 10 times. Compounds were solubilized in TRIS buffer at 750, 500, 300, and 100 μM and mixed with horse erythrocytes (1:1 vol/vol). The mixture was incubated with continuous shaking for 1 h at 37°C. Then, the tubes were centrifuged at 3500g for 10 min, 80-μL aliquots of the supernatant were transferred to 100-well microplates (Bioscreen) and diluted with 80 μL water, and the absorbance measured at 540 nm (Bioscreen). […] The percentage of hemolysis (H) was calculated using the equation H = 100 × ([Op − Ob]/[Om − Ob]), where Op is the density for a given compound concentration, Ob is that for the buffer, and Om is that for the melittin positive control.
# [6] = test system: Xanthomonas axonopodis pv. vesicatoria 2133-2; details: TSB, 25°C, 48 h, OD 600 nm (Bioscreen C), three replicates, experiment repeated twice; MIC given as range
# Text: The corresponding monomers (flg15, BP13, Pep13, PIP1, BP16, BP100, BP143, BP387, BP475, and KSL-W) were included for comparison.
# as §2, §3
Molecule,Size of the lesions in infiltrated tobacco leaves at 50 μM (tobacco leaves) [cm],Size of the lesions in infiltrated tobacco leaves at 150 μM (tobacco leaves) [cm],Size of the lesions in infiltrated tobacco leaves at 250 μM (tobacco leaves) [cm],"MIC, Xf [1] [µM]","MIC, Xap [2] [µM]","MIC, Ea [3] [µM]","MIC, Pss [4] [µM]","MIC, Psa [5] [µM]",Percent hemolysis at 50 μM (horse erythrocytes) [%],Percent hemolysis at 150 μM (horse erythrocytes) [%],Percent hemolysis at 250 μM (horse erythrocytes) [%],Percent hemolysis at 375 μM (horse erythrocytes) [%],"MIC, Xav [6] [µM]"
KKLFKKILKKL-FKLFKKILKVL-NH2 [BP16-BP13],0.68 ± 0.16,1.15 ± 0.28,1.52 ± 0.32,12.5 to 25,6.2 to 12.5,> 50,12.5 to 25,25 to 50,100 ± 4.0,100 ± 2.3,100 ± 8.5,100 ± 2.1,1.6 to 3.1
KKLFKKILKYL-FKLFKKILKVL-NH2 [BP100-BP13],0.73 ± 0.20,1.36 ± 0.23,1.46 ± 0.06,6.2 to 12.5,12.5 to 25,> 50,> 50,25 to 50,100 ± 9.4,100 ± 5.5,98 ± 3.3,99 ± 3.7,6.2 to 12.5
FKLFKKILKVL-KKLfKKILKYL-NH2 [BP13-BP143],0.53 ± 0.18,0.88 ± 0.15,1.07 ± 0.37,12.5 to 25,6.2 to 12.5,> 50,> 50,> 50,100 ± 0.6,100 ± 3.7,100 ± 3.2,100 ± 10.6,1.6 to 3.1
FKLFKKILKVL-KKLFKKILKKL-NH2 [BP13-BP16],0.52 ± 0.08,1.08 ± 0.21,1.40 ± 0.71,6.2 to 12.5,6.2 to 12.5,> 50,> 50,> 50,86 ± 13.2,86 ± 1.6,87 ± 1.2,93 ± 2.3,12.5 to 25
KKLfKKILKYL-FKLFKKILKVL-NH2 [BP143-BP13],0.18 ± 0.10,0.40 ± 0.14,1.14 ± 0.36,6.2 to 12.5,12.5 to 25,> 50,> 50,25 to 50,100 ± 6.1,100 ± 3.6,100 ± 7.1,100 ± 7.0,6.2 to 12.5
"CCCC(=O)NCCCC[C@H](NC(=O)[C@H](CCCCN)NC(=O)[C@H](CC(C)C)NC(=O)[C@@H](NC(=O)[C@H](CCCCN)NC(=O)[C@H](CCCCN)NC(=O)[C@@H](Cc1ccccc1)NC(=O)[C@H](CC(C)C)NC(=O)[C@H](CCCCN)NC(=O)[C@H](CCCCN)NC(C)=O)[C@@H](C)CC)C(=O)N[C@@H](CC(C)C)C(N)=O [BP475, reference compound] (Ac-KKL[dF]KKILKK(Butyryl)L-NH2)",0.50 ± 0.10,0.70 ± 0.20,1.00 ± 0.10,1.6 to 3.1,0.8 to 1.6,3.1 to 6.2,3.1 to 6.2,1.6 to 3.1,0 ± 0,0 ± 0,0 ± 0,0 ± 0,1.6 to 3.1
